Measurements from US10378060B2, “ZNF365/ZFP365 biomarker predictive of anti-cancer response” (Dana-Farber Cancer Institute, Inc., priority 2011, dated 2019).

Tests used:
U2OS cells = assay: 53BP1-positive DNA damage foci (DSB) staining; assay type: cell-based; details: ZNF365-deficient U2OS cells (shZNF-2 or shZNF-5), additional treatment with 1 μM ABT888
Text: FIGS. 10A-10C show increased DNA double strand breaks (DSB) in ZNF365-deficient cells.
U2OS cells infected with either a control scrambled shRNA (Scr) to establish the basal DSB levels or with either of two independent shRNA sequences targeting ZNF365 (shZNF-2 or shZNF-5) were scored for 53BP1-positive damage foci as an indicator of DSB (FIG. 10A; red highlighted dots indicates foci and dotted circles indicate nuclei). Quantification of the 53BP1-positive foci indicated increased numbers of DSB in ZNF365-deficient cells (FIG. 10B).

[1] = system: MCF7 breast cancer cell line; assay: MTT cell proliferation assay; assay type: cell-based; details: MCF7 control (TR) vs shZNF cells, different doses of ABT888 for 48 hours with or without radiation (2 Gy)
Method: Control cells of the MCF7 breast cancer cell line (TR), as well as MCF7 cells transfected with shRNAs targeting ZNF365 (shZNF) were treated with different doses of the PARP inhibitor, ABT888, for 48 hours with or without radiation (2 Gy). A standard MTT cell proliferation assay was performed to determine cell viability.

For `C[C@]1(c2nc3c(C(N)=O)cccc3[nH]2)CCCN1` [ABT888], the “53BP1-positive DNA damage foci as an indicator of DSB” value (U2OS cells) was “became more prominent” and the cell viability [1] was “ZNF365 deficiency sensitizes cells”.
